# Measurements reported in article PMC4861708 (Frontiers in Cell and Developmental Biology, 2016).
# Where a SMILES comes first, the peptide text is derived from it. The star is where a group is joined. Orn(α-tetramethylguanidino) = CN(C)C(=N[C@@H](CCCN)C(=O)*)N(C)C
# What was measured:
# P. aeruginosa DSM 1117 = experiment: Transmission electron microscopy, morphological changes; format: cell-based, Pseudomonas aeruginosa; conditions: 1 h
# Description: Peptide-bacteria mixtures were fixed (2% glutaraldehyde, 5 mmol/L CaCl2, 10 mmol/L MgCl2 in 0.1 mol/L sodium cacodylate buffer, pH 7.4) overnight at 4°C. […] Samples were rinsed with distilled water (5 × 10 min), incubated with aqueous uranylacetate (0.5% w/v) for 1 h at 4°C, washed with distilled water (3 × 10 min), and embedded in Epon. The hardened blocks were sectioned (50 nm) on a UCT ultramicrotome (Leica, Vienna, Austria), stained with uranyl acetate and lead citrate on an AC20 system (Leica), and visualized at a Tecnai 12 electron microscope (FEI, Eindhoven, The Netherlands) at 80 kV. Morphological effects were quantified on average for 25 cells per condition.
# [1] = system: K. pneumoniae DSM 681 (ATCC 10031); format: cell-based, Klebsiella pneumoniae; conditions: DSM 681, 24 h
# How it was run: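 Broth microdilution MIC: P. aeruginosa strains in 50 or 100% MHB, K. pneumoniae in TSB; peptides 512–4 μg/mL final. Inoculum from 1.5 × 10^7 cells/mL suspension, also high density 5 × 10^8 cells/mL; 37°C, 24 h, growth read at OD595.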
# [2] = system: E. coli DSM 1103 (ATCC 25922); format: cell-based, Escherichia coli; conditions: DSM 1103, 24 h
# [3] = system: P. aeruginosa DSM 1117 (ATCC 27853); format: cell-based, Pseudomonas aeruginosa; conditions: DSM 1117, 24 h
# Description: MICs of P. aeruginosa strains DSM 1117 (ATCC 27853), DSM 3227 (ATCC 19429), and DSM 9644 were determined in a microdilution broth assay using 50 or 100% MHB (11.5 and 23 g/L MHB, respectively) whereas MICs of E. coli DSM 1103 (ATCC 25922) and K. pneumoniae DSM 681 (ATCC 10031) were determined in TSB (30 g/L TSB). Peptides (1 g/L in water) were serially two-fold diluted in a 96-well microtiter plate (PS, sterile, flat bottom) in 50 μL of the corresponding medium to final concentrations of 512–4 μg/mL. Bacteria were grown in nutrient broth overnight and diluted to a cell concentration of 1.5 × 10^7 cells/mL in the corresponding medium. Cell densities were determined by using the McFarland standard as reference. An aliquot (50 μL) of the cell culture was added to each well and incubated (37°C, 24 h). The OD595 was determined in a SpectraMax 340PC (Molecular Devices, Sunnyvale, USA). Additionally, MIC values were also determined for high bacteria densities (5 × 10^8 cells/mL) corresponding to the conditions used for TEM, as described above.
# P. aeruginosa elastase = biological target: T1, P. aeruginosa elastase (Pseudomonas aeruginosa, UniProt P14756); experiment: Elastase assay (proteolytic stability); format: in vitro ADME; conditions: after 6 h, elastase 12 units/mL, pH 8.3, 37°C
# T1 construct: purchased Merck (Darmstadt, Germany)
# T1 sequence (P14756 198-498): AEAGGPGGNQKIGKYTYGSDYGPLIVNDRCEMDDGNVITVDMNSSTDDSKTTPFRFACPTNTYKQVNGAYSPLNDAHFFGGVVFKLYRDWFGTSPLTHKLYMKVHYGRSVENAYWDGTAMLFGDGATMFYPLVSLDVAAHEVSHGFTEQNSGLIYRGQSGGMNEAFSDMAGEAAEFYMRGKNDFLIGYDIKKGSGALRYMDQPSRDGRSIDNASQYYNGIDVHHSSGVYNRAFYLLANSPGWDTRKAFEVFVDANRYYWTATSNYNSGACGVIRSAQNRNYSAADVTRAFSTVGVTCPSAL
compound,measurement,setting,value
"CC[C@H](C)[C@H](NC(=O)[C@H](Cc1ccc(O)cc1)NC(=O)[C@@H](NC(=O)[C@@H]1CCCN1C(=O)[C@H](CCCNC(=N)N)NC(=O)[C@H](CC(N)=O)NC(=O)[C@H](CC(N)=O)NC(=O)[C@H](CCCN)N=C(N(C)C)N(C)C)C(C)C)C(=O)N1CCC[C@H]1C(=O)N[C@@H](CCCNC(=N)N)C(=O)N1CCC[C@H]1C(=O)N[C@@H](CCCNC(=N)N)C(=O)N1CCC[C@H]1C(=O)N1CCC[C@H]1C(=O)N[C@@H](Cc1c[nH]cn1)C(=O)N1CCC[C@H]1C(=O)N[C@@H](CCCNC(=N)N)C(=O)N[C@@H](CC(C)C)C(=O)O [Api137, gu-ONNRPVYIPRPRPPHPRL-OH, reference compound] ({Orn(α-tetramethylguanidino)}-NNRPVYIPRPRPPHPRL-OH)",Cells spongy,P. aeruginosa DSM 1117; 32 µg/mL,0%
same,"DNA/ribosomes relocalization: +++, extremely relocalized",P. aeruginosa DSM 1117; 32 µg/mL,0%
same,"DNA/ribosomes relocalization: +, starting",P. aeruginosa DSM 1117; 32 µg/mL,43%
same,"DNA/ribosomes relocalization: -, no",P. aeruginosa DSM 1117; 32 µg/mL,40%
same,"Membrane: b, broken",P. aeruginosa DSM 1117; 32 µg/mL,0%
same,"Membrane: i, intact",P. aeruginosa DSM 1117; 32 µg/mL,100%
same,"Membrane: r, ruptured",P. aeruginosa DSM 1117; 32 µg/mL,0%
same,"Ribosome clustering: +++, extremely clustered",P. aeruginosa DSM 1117; 32 µg/mL,0%
same,"Ribosome clustering: ++, clustered",P. aeruginosa DSM 1117; 32 µg/mL,0%
same,"Ribosome clustering: +, starting",P. aeruginosa DSM 1117; 32 µg/mL,63%
same,"Ribosome clustering: -, no",P. aeruginosa DSM 1117; 32 µg/mL,37%
same,Vesicle release,P. aeruginosa DSM 1117; 32 µg/mL,43%
same,"dissociated Fragments: ++, long and thin",P. aeruginosa DSM 1117; 32 µg/mL,0%
same,"dissociated Fragments: -, no",P. aeruginosa DSM 1117; 32 µg/mL,87%
same,"dissociated Fragments: LV, large vesicles",P. aeruginosa DSM 1117; 32 µg/mL,0%
same,Cells spongy,P. aeruginosa DSM 1117; 128 µg/mL,0%
same,"DNA/ribosomes relocalization: +++, extremely relocalized",P. aeruginosa DSM 1117; 128 µg/mL,0%
same,"DNA/ribosomes relocalization: +, starting",P. aeruginosa DSM 1117; 128 µg/mL,37%
same,"DNA/ribosomes relocalization: -, no",P. aeruginosa DSM 1117; 128 µg/mL,47%
same,"Membrane: b, broken",P. aeruginosa DSM 1117; 128 µg/mL,0%
same,"Membrane: i, intact",P. aeruginosa DSM 1117; 128 µg/mL,100%
same,"Membrane: r, ruptured",P. aeruginosa DSM 1117; 128 µg/mL,0%
same,"Ribosome clustering: +++, extremely clustered",P. aeruginosa DSM 1117; 128 µg/mL,0%
same,"Ribosome clustering: ++, clustered",P. aeruginosa DSM 1117; 128 µg/mL,0%
same,"Ribosome clustering: +, starting",P. aeruginosa DSM 1117; 128 µg/mL,57%
same,"Ribosome clustering: -, no",P. aeruginosa DSM 1117; 128 µg/mL,43%
same,Vesicle release,P. aeruginosa DSM 1117; 128 µg/mL,47%
same,"dissociated Fragments: ++, long and thin",P. aeruginosa DSM 1117; 128 µg/mL,3%
same,"dissociated Fragments: +, small and thin",P. aeruginosa DSM 1117; 128 µg/mL,10%
same,"dissociated Fragments: -, no",P. aeruginosa DSM 1117; 128 µg/mL,87%
same,"dissociated Fragments: LV, large vesicles",P. aeruginosa DSM 1117; 128 µg/mL,0%
same,Cells spongy,P. aeruginosa DSM 1117; 512 µg/mL,0%
same,"DNA/ribosomes relocalization: +++, extremely relocalized",P. aeruginosa DSM 1117; 512 µg/mL,0%
same,"DNA/ribosomes relocalization: +, starting",P. aeruginosa DSM 1117; 512 µg/mL,40%
same,"DNA/ribosomes relocalization: -, no",P. aeruginosa DSM 1117; 512 µg/mL,47%
same,"Membrane: b, broken",P. aeruginosa DSM 1117; 512 µg/mL,0%
same,"Membrane: i, intact",P. aeruginosa DSM 1117; 512 µg/mL,100%
same,"Membrane: r, ruptured",P. aeruginosa DSM 1117; 512 µg/mL,0%
same,"Ribosome clustering: +++, extremely clustered",P. aeruginosa DSM 1117; 512 µg/mL,0%
same,"Ribosome clustering: ++, clustered",P. aeruginosa DSM 1117; 512 µg/mL,0%
same,"Ribosome clustering: +, starting",P. aeruginosa DSM 1117; 512 µg/mL,30%
same,"Ribosome clustering: -, no",P. aeruginosa DSM 1117; 512 µg/mL,70%
same,Vesicle release,P. aeruginosa DSM 1117; 512 µg/mL,37%
same,"dissociated Fragments: ++, long and thin",P. aeruginosa DSM 1117; 512 µg/mL,3%
same,"dissociated Fragments: +, small and thin",P. aeruginosa DSM 1117; 512 µg/mL,0%
same,"dissociated Fragments: -, no",P. aeruginosa DSM 1117; 512 µg/mL,97%
same,"dissociated Fragments: LV, large vesicles",P. aeruginosa DSM 1117; 512 µg/mL,0%
same,MIC K. pneumoniae DSM 681,[1],16 µg/mL
same,MIC E. coli ATCC 25922,[2],2 µg/mL
same,"MIC E. coli DSM 1103, high inoculum",[2],32 µg/mL
same,"MIC P. aeruginosa DSM 1117, high inoculum",[3],128 µg/mL
same,Peptide remaining with elastase,P. aeruginosa elastase,fully recovered
